# Measurements from patent publication US20100267561A1, “HERBICIDAL PYRIDAZINONE DERIVATIVES” (priority 2007, published 2010).
# Where two headings read alike, the source gives them in different places.
# Legend:
# Assay in all cases: Test B pre-/postemergence plant response
# Assay type in all cases: in vivo
# [1] = test system: Italian ryegrass (Lolium multiflorum); conditions: for pest or weed control at 31 g/ha / pest or weed control at 62 g/ha: Lolium multiflorum, read-out: Plant response rating, Ryegrass, Italian; for pest or weed control at 31 g/ha: 31 g ai/ha; for pest or weed control at 62 g/ha: 62 g ai/ha, 100 complete control
# Outline: (§1)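 Visual scoring from 0 (no effect) to 100 (complete control) against untreated controls was done 13 to 15 days after greenhouse treatment. Chemicals were formulated in a surfactant-containing non-phytotoxic solvent and applied to soil preemergence or to 1- to 4-leaf (2-18 cm) plants postemergence.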
# [2] = test system: Russian thistle (Salsola iberica); conditions: Preemergence
# Outline: as §1
# [3] = test system: common (oilseed) sunflower (Helianthus annuus); conditions: Preemergence
# Outline: as §1
# [4] = test system: common ragweed (Ambrosia elation); conditions: for pest or weed control at 31 g/ha / pest or weed control at 62 g/ha: Ambrosia, read-out: Plant response rating, Ragweed; for pest or weed control at 31 g/ha: 31 g ai/ha; for pest or weed control at 62 g/ha: 62 g ai/ha, 100 complete control
# Outline: as §1
# corn (Zea mays) = conditions: for Corn plant response rating (crop injury, 0 = no effect, 100 = complete kill) at 31 g/ha: 31 g ai/ha; for Corn plant response rating (crop injury, 0 = no effect, 100 = complete kill) at 62 g/ha: 62 g ai/ha, 100 complete control
# Outline: as §1
# [5] = test system: eastern black (E.B.) nightshade (Solanum ptycanthum); conditions: Preemergence
# Outline: as §1
# [6] = test system: giant foxtail (Setaria faberii); conditions: for pest or weed control at 31 g/ha: 31 g ai/ha; for pest or weed control at 62 g/ha: 62 g ai/ha, 100 complete control
# Outline: as §1
# [7] = test system: goosegrass (Eleusine indica); conditions: for pest or weed control at 31 g/ha / pest or weed control at 62 g/ha: Eleusine indica, read-out: Plant response rating, Goosegrass; for pest or weed control at 31 g/ha: 31 g ai/ha; for pest or weed control at 62 g/ha: 62 g ai/ha, 100 complete control
# Outline: as §1
# [8] = test system: green foxtail (Setaria viridis); conditions: for pest or weed control at 31 g/ha: 31 g ai/ha; for pest or weed control at 62 g/ha: 62 g ai/ha, 100 complete control
# Outline: as §1
# [9] = test system: johnsongrass (Sorghum halepense); conditions: for pest or weed control at 31 g/ha / pest or weed control at 62 g/ha: Sorghum halepense, read-out: Plant response rating, Johnsongrass; for pest or weed control at 31 g/ha: 31 g ai/ha; for pest or weed control at 62 g/ha: 62 g ai/ha, 100 complete control
# Outline: as §1
# [10] = test system: pigweed (Amaranthus retroflexus); conditions: for pest or weed control at 31 g/ha / pest or weed control at 62 g/ha: Amaranthus retroflexus, read-out: Plant response rating, Pigweed; for pest or weed control at 31 g/ha: 31 g ai/ha; for pest or weed control at 62 g/ha: 62 g ai/ha, 100 complete control
# Outline: as §1
# [11] = test system: surinam grass (Brachiaria decumbens); conditions: for pest or weed control at 31 g/ha / pest or weed control at 62 g/ha: Urochloa decumbens, read-out: Plant response rating, Surinam Grass; for pest or weed control at 31 g/ha: 31 g ai/ha; for pest or weed control at 62 g/ha: 62 g ai/ha, 100 complete control
# Outline: as §1
# [12] = test system: yellow nutsedge (Cyperus esculentus); conditions: for pest or weed control at 31 g/ha / pest or weed control at 62 g/ha: Cyperus, read-out: Plant response rating, Nutsedge, Yellow; for pest or weed control at 31 g/ha: 31 g ai/ha; for pest or weed control at 62 g/ha: 62 g ai/ha, 100 complete control
# Outline: as §1
# [13] = 8 g ai/ha, postemergence, 0-100 scale
# [14] = 16 g ai/ha, postemergence, 0-100 scale
# [15] = post-emergence, Postemergence, scale 0 to 100
# [16] = post-emergence, Postemergence, scale 0 to 100, 0 no effect
# [17] = pre-emergence, Preemergence, scale 0 to 100 (0 no effect, 100 complete control)
# [18] = pre-emergence, Preemergence, 0 to 100 scale, 0 no effect
# [19] = Preemergence, 8 g ai/ha, scale 0 to 100 (0 no effect, 100 complete control)
# [20] = Preemergence, 16 g ai/ha, scale 0 to 100
# [21] = 8 g ai/ha, scale 0 to 100 (0 no effect, 100 complete control)
smiles,measurement,setting,value
"Cc1nn(C)c(=O)c(-c2nc(-c3ccc(Cl)cc3)sc2C)c1O [Compound 79, 4-[2-(4-chlorophenyl)-5-methyl-4-thiazolyl]-5-hydroxy-2,6-dimethyl-3(2H)-pyridazinone]","Ryegrass, Italian plant response rating",[1]; [13],55
same,"Ryegrass, Italian plant response rating",[1]; [14],70
same,pest or weed control at 31 g/ha,[1]; [15],80%
same,pest or weed control at 62 g/ha,[1]; [16],90%
same,pest or weed control at 31 g/ha,[1]; [17],100%
same,pest or weed control at 62 g/ha,[1]; [18],100%
same,"Ryegrass, Italian plant response rating",[1]; [19],0
same,"Ryegrass, Italian plant response rating",[1]; [20],90
same,Russian Thistle plant response rating,[2]; [21],0
same,"Plant response rating, Russian Thistle","[2]; 31 g ai/ha, scale 0 to 100 (0 no effect, 100 complete control)",0
same,"Plant response rating, Russian Thistle","[2]; 62 g ai/ha, 0 to 100 scale, 0 no effect, 100 complete control",0
same,Russian Thistle plant response rating,"[2]; 16 g ai/ha, scale 0 to 100",0
same,pest or weed control at 31 g/ha,"[3]; Helianthus annuus, pre-emergence, 31 g ai/ha, scale 0 to 100 (0 no effect, 100 complete control), read-out: Plant response rating, Sunflower",0%
same,pest or weed control at 62 g/ha,"[3]; Helianthus annuus, pre-emergence, 62 g ai/ha, 0 to 100 scale, 0 no effect, 100 complete control, read-out: Plant response rating, Sunflower",0%
same,Sunflower plant response rating,[3]; [21],0
same,Sunflower plant response rating,"[3]; 16 g ai/ha, scale 0 to 100",0
same,Ragweed plant response rating,[4]; [13],0
same,Ragweed plant response rating,[4]; [14],0
same,pest or weed control at 31 g/ha,[4]; [15],0%
same,pest or weed control at 62 g/ha,[4]; [16],0%
same,pest or weed control at 31 g/ha,[4]; [17],0%
same,pest or weed control at 62 g/ha,[4]; [18],0%
same,Ragweed plant response rating,[4]; [19],0
same,Ragweed plant response rating,[4]; [20],0
same,Corn plant response rating,corn (Zea mays); [13],0
same,Corn plant response rating,corn (Zea mays); [19],0
same,Corn plant response rating,corn (Zea mays); [20],0
same,"Corn plant response rating (crop injury, 0 = no effect, 100 = complete kill) at 16 g/ha","corn (Zea mays); Zea mays, post-emergence, Postemergence, 16 g ai/ha, scale 0 to 100",0%
same,"Corn plant response rating (crop injury, 0 = no effect, 100 = complete kill) at 31 g/ha","corn (Zea mays); Zea mays, post-emergence, Postemergence, scale 0 to 100",20%
same,"Corn plant response rating (crop injury, 0 = no effect, 100 = complete kill) at 62 g/ha","corn (Zea mays); Zea mays, post-emergence, Postemergence, scale 0 to 100, 0 no effect",35%
same,"Corn plant response rating (crop injury, 0 = no effect, 100 = complete kill) at 31 g/ha","corn (Zea mays); Zea mays, pre-emergence, Preemergence, scale 0 to 100 (0 no effect, 100 complete control)",50%
same,"Corn plant response rating (crop injury, 0 = no effect, 100 = complete kill) at 62 g/ha","corn (Zea mays); Zea mays, pre-emergence, Preemergence, 0 to 100 scale, 0 no effect",100%
same,"Nightshade, E. B. plant response rating",[5]; [21],0
same,"Nightshade, E. B. plant response rating","[5]; 16 g ai/ha, scale 0 to 100",0
same,pest or weed control at 62 g/ha,"[5]; Solanum, pre-emergence, 62 g ai/ha, 0 to 100 scale, 0 no effect, 100 complete control, read-out: Plant response rating, Nightshade, E. B.",0%
same,"Foxtail, Giant plant response rating",[6]; [13],75
same,"Foxtail, Giant plant response rating",[6]; [19],55
same,"Foxtail, Giant plant response rating",[6]; [20],100
same,pest or weed control at 16 g/ha,"[6]; Setaria faberi, post-emergence, Postemergence, 16 g ai/ha, scale 0 to 100, read-out: Plant response rating, Foxtail, Giant",80%
same,pest or weed control at 31 g/ha,"[6]; Setaria faberi, post-emergence, Postemergence, scale 0 to 100, read-out: Plant response rating, Foxtail, Giant",85%
same,pest or weed control at 62 g/ha,"[6]; Setaria faberi, post-emergence, Postemergence, scale 0 to 100, 0 no effect, read-out: Plant response rating, Foxtail, Giant",90%
same,pest or weed control at 31 g/ha,"[6]; Setaria faberi, pre-emergence, Preemergence, scale 0 to 100 (0 no effect, 100 complete control), read-out: Plant response rating, Foxtail, Giant",100%
same,pest or weed control at 62 g/ha,"[6]; Setaria faberi, pre-emergence, Preemergence, 0 to 100 scale, 0 no effect, read-out: Plant response rating, Foxtail, Giant",100%
same,Goosegrass plant response rating,[7]; [13],60
same,Goosegrass plant response rating,[7]; [14],80
same,pest or weed control at 31 g/ha,[7]; [15],85%
same,pest or weed control at 62 g/ha,[7]; [16],90%
same,pest or weed control at 31 g/ha,[7]; [17],100%
same,pest or weed control at 62 g/ha,[7]; [18],100%
same,Goosegrass plant response rating,[7]; [19],98
same,Goosegrass plant response rating,[7]; [20],100
same,"Foxtail, Green plant response rating",[8]; [13],75
same,"Foxtail, Green plant response rating",[8]; [19],30
same,"Foxtail, Green plant response rating",[8]; [20],60
same,pest or weed control at 16 g/ha,"[8]; Setaria viridis, post-emergence, Postemergence, 16 g ai/ha, scale 0 to 100, read-out: Plant response rating, Foxtail, Green",85%
same,pest or weed control at 31 g/ha,"[8]; Setaria viridis, post-emergence, Postemergence, scale 0 to 100, read-out: Plant response rating, Foxtail, Green",98%
same,pest or weed control at 62 g/ha,"[8]; Setaria viridis, post-emergence, Postemergence, scale 0 to 100, 0 no effect, read-out: Plant response rating, Foxtail, Green",98%
same,pest or weed control at 31 g/ha,"[8]; Setaria viridis, pre-emergence, Preemergence, scale 0 to 100 (0 no effect, 100 complete control), read-out: Plant response rating, Foxtail, Green",98%
same,pest or weed control at 62 g/ha,"[8]; Setaria viridis, pre-emergence, Preemergence, 0 to 100 scale, 0 no effect, read-out: Plant response rating, Foxtail, Green",100%
same,Johnsongrass plant response rating,[9]; [13],85
same,Johnsongrass plant response rating,[9]; [14],90
same,Johnsongrass plant response rating,[9]; [19],65
same,Johnsongrass plant response rating,[9]; [20],85
same,pest or weed control at 31 g/ha,[9]; [15],100%
same,pest or weed control at 62 g/ha,[9]; [16],100%
same,pest or weed control at 31 g/ha,[9]; [17],100%
same,pest or weed control at 62 g/ha,[9]; [18],100%
same,Pigweed plant response rating,[10]; [13],0
same,Pigweed plant response rating,[10]; [14],0
same,pest or weed control at 31 g/ha,[10]; [15],0%
same,pest or weed control at 62 g/ha,[10]; [16],0%
same,pest or weed control at 31 g/ha,[10]; [17],0%
same,pest or weed control at 62 g/ha,[10]; [18],0%
same,Pigweed plant response rating,[10]; [19],0
same,Pigweed plant response rating,[10]; [20],0
same,Surinam Grass plant response rating,[11]; [13],65
same,Surinam Grass plant response rating,[11]; [14],70
same,Surinam Grass plant response rating,[11]; [19],75
same,Surinam Grass plant response rating,[11]; [20],85
same,pest or weed control at 31 g/ha,[11]; [15],75%
same,pest or weed control at 62 g/ha,[11]; [16],85%
same,pest or weed control at 31 g/ha,[11]; [17],100%
same,pest or weed control at 62 g/ha,[11]; [18],100%
same,"Nutsedge, Yellow plant response rating",[12]; [13],0
same,"Nutsedge, Yellow plant response rating",[12]; [14],0
same,pest or weed control at 31 g/ha,[12]; [15],0%
same,pest or weed control at 62 g/ha,[12]; [16],0%
same,pest or weed control at 31 g/ha,[12]; [17],0%
same,pest or weed control at 62 g/ha,[12]; [18],0%
same,"Nutsedge, Yellow plant response rating",[12]; [19],0
same,"Nutsedge, Yellow plant response rating",[12]; [20],0
